Test systems include A549; CAKI-1; HCT-15; HL-60; HOP-92; Hs-578T; LOX IMVI; M14; MDA-MB-435; MOLT-4; NCI/ADR-RES; OVCAR-8; SF-539; SNB-19; SNB-75; SR; T47D; U-251; UACC-257; UACC-62.
Test in all cases: inhibition of tumour cell growth, NCI panel, 48 h

The structures appear in SMILES notation.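 Briefly, cells in 96-well plates were exposed to five compound concentrations for 48 h, and endpoints were estimated by linear interpolation. GI50 is the concentration that inhibits growth by half.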 Activity calls are given as the source filed them. Rule as the data show it: active = GI50 up to about 1.1 µM and inactive = higher.

On to `COc1cc2c(cc1C)NC(=O)/C2=C/c1c(Cl)n(-c2ccccc2)c2ccccc12`, for which the GI50 in the test on A549 is 7 µM (inactive); in the test with CAKI-1, 21 µM (inactive); in the test with HCT-15, 11.8 µM; in the test with HL-60, 3.38 µM (inactive); in the test with HOP-92, 23 µM (inactive); with Hs-578T, 20 µM (inactive). For the same molecule, the GI50 in the test on LOX IMVI is 7.33 µM (inactive); in the test with M14, 27.4 µM (inactive); in the test with MDA-MB-435, 15.1 µM (inactive); in the test on MOLT-4 it was 4.82 µM (inactive); with NCI/ADR-RES, 16.8 µM (inactive); in the test with OVCAR-8 it was 23.4 µM (inactive). Besides, the GI50 in the test on SF-539 was 11.1 µM (inactive); in the test with SNB-19, 45.7 µM (inactive); with SNB-75, 65 µM (inactive); with SR it was 6.12 µM (inactive); in the test on T47D, 4.54 µM (inactive); in the test with U-251 it was 16.1 µM (inactive). The GI50 in the test on UACC-257 was 20.5 µM (inactive); with UACC-62, 19.3 µM (inactive).
Consider `COc1cc2c(c(OC)c1OC)-c1ccc(SC)c(=O)cc1[C@@H](NC(=O)C(F)(F)F)CC2`, for which the GI50 is < 0.01 µM (active) in the test on A549; < 0.0139 µM (active) with CAKI-1; less than 0.01 µM in the test on HCT-15; < 0.01 µM (active) in the test on HL-60; < 0.01 µM (active) in the test on HOP-92; < 0.01 µM (active) in the test with Hs-578T. Besides, the GI50 with LOX IMVI was < 0.01 µM (active); in the test with M14, < 0.01 µM (active); in the test on MDA-MB-435, < 0.01 µM (active); with MOLT-4 it was < 0.01 µM (active); with NCI/ADR-RES, 0.0261 µM (active); with OVCAR-8 it was < 0.01 µM (active). Moreover, the GI50 with SF-539 is < 0.01 µM (active); in the test on SNB-19, < 0.01 µM (active); with SNB-75 it was 0.019 µM (active); in the test on SR, < 0.01 µM (active); with T47D, > 60.8 µM (inactive); in the test on U-251, < 0.01 µM (active). The values for the GI50 in the test on UACC-257 and with UACC-62 were < 0.01 µM (active) and < 0.0102 µM (active), respectively.
As for `CC(C)(C)OC(=O)n1c2ccccc2c2c(=O)nc(N3CCCCC3)sc21`, the GI50 is > 100 µM (inactive) in the test on A549; > 100 µM (inactive) in the test on CAKI-1; more than 100 µM with HCT-15; > 100 µM (inactive) with HL-60; > 100 µM (inactive) in the test with HOP-92; > 100 µM (inactive) in the test on Hs-578T. In addition, the GI50 with LOX IMVI, with M14, with MDA-MB-435, in the test with MOLT-4, in the test on NCI/ADR-RES and in the test on OVCAR-8 was > 100 µM (inactive) throughout. Also, the GI50 in the test with SF-539 was > 100 µM (inactive); in the test on SNB-19, > 100 µM (inactive); with SNB-75 it was > 100 µM (inactive); in the test with SR, 90.4 µM (inactive); with T47D, > 100 µM (inactive); in the test with U-251 it was > 100 µM (inactive). The GI50 with UACC-257 and in the test on UACC-62 was > 100 µM (inactive) in each case.
For `CCN(CC)CCN1c2ccccc2Sc2ccc3ccccc3c21`, the GI50 was 14.2 µM (inactive) in the test with A549; 8.89 µM (inactive) in the test on CAKI-1; 6.9 µM with HCT-15; 3.54 µM (inactive) in the test on HL-60; 3.37 µM (inactive) with HOP-92; 13.5 µM (inactive) in the test with Hs-578T. Moreover, the GI50 in the test with LOX IMVI was 7.52 µM (inactive); with M14 it was 3.01 µM (inactive); with MDA-MB-435 it was 8.63 µM (inactive); in the test with MOLT-4 it was 3.74 µM (inactive); with NCI/ADR-RES, 10.6 µM (inactive); in the test with OVCAR-8, 12.6 µM (inactive). The GI50 in the test on SF-539 is 13.6 µM (inactive); with SNB-19, 15.3 µM (inactive); in the test on SNB-75, 7.06 µM (inactive); in the test on SR, 4.94 µM (inactive); in the test with T47D it was 2.01 µM (inactive); with U-251, 9.38 µM (inactive). The GI50 is 7.69 µM (inactive) in the test with UACC-257 and 8.57 µM (inactive) with UACC-62.
With `CCCC(=O)Nc1cc(/C=C/C(=O)N2C[C@H]3C[C@@]34C2=CC(=O)c2[nH]cc(C)c24)n(C)c1`, the GI50 was 0.00395 µM (active) with A549; < 0.0025 µM (active) with CAKI-1; 0.0103 µM in the test with HCT-15; < 0.0025 µM (active) in the test on HL-60; < 0.0025 µM (active) in the test on HOP-92; 0.00273 µM (active) in the test with Hs-578T. Also, the GI50 is < 0.0025 µM (active) with LOX IMVI; < 0.0025 µM (active) in the test on M14; < 0.0025 µM (active) in the test on MDA-MB-435; < 0.0025 µM (active) with MOLT-4; 0.00982 µM (active) in the test with NCI/ADR-RES; < 0.0025 µM (active) in the test with OVCAR-8. Besides, the GI50 in the test on SF-539 was < 0.0025 µM (active); in the test on SNB-19, 0.00593 µM (active); in the test with SNB-75 it was < 0.0025 µM (active); in the test on SR, < 0.0025 µM (active); with T47D, < 0.0025 µM (active); with U-251, < 0.0025 µM (active). Moreover, the GI50 in the test with UACC-257 and with UACC-62 was < 0.0025 µM (active) in each case.
As to `CCCCCCCCCCCCCCCCOP(=O)([O-])OCC[N+](C)(C)C` [MILTEFOSINE], the GI50 in the test with A549 is 7.11 µM (inactive); in the test on CAKI-1 it was 10.3 µM (inactive); in the test with HCT-15, 10.5 µM; in the test with HL-60 it was 4.74 µM (inactive); with HOP-92, 2.68 µM (inactive); in the test with Hs-578T, 19.3 µM (inactive). The GI50 was 21.5 µM (inactive) in the test with LOX IMVI; 16.4 µM (inactive) in the test on M14; 17.9 µM (inactive) with MDA-MB-435; 8.73 µM (inactive) with MOLT-4; 43.4 µM (inactive) with NCI/ADR-RES; 25.8 µM (inactive) in the test with OVCAR-8. For the same molecule, the GI50 in the test on SF-539 is 30.5 µM (inactive); with SNB-19, 17.7 µM (inactive); in the test with SNB-75, 18.7 µM (inactive); in the test with SR it was 6.21 µM (inactive); in the test with T47D it was 18.2 µM (inactive); with U-251, 15.3 µM (inactive). Also, the GI50 with UACC-257 was 30.6 µM (inactive); in the test with UACC-62, 20.2 µM (inactive).
As to `COc1ccc(-c2cc(=O)c3c(OC)c(OC)c(OC)c(OC)c3o2)c(OC)c1`, the GI50 in the test on A549 was 32.6 µM (inactive); in the test on CAKI-1, 29.8 µM (inactive); with HCT-15, 25.6 µM; in the test with HL-60, 29.7 µM (inactive); in the test on HOP-92, 14 µM (inactive); in the test on Hs-578T it was 18 µM (inactive). Moreover, the GI50 is 17.2 µM (inactive) in the test on LOX IMVI; 21 µM (inactive) in the test with M14; 24.6 µM (inactive) with MDA-MB-435; 26.4 µM (inactive) in the test with MOLT-4; 16.8 µM (inactive) in the test with NCI/ADR-RES; 21.9 µM (inactive) in the test with OVCAR-8. The GI50 in the test on SF-539 was 61.4 µM (inactive); in the test on SNB-19, 32.8 µM (inactive); in the test with SNB-75, 15.6 µM (inactive); in the test with SR, > 100 µM (inactive); in the test with T47D it was 8.65 µM (inactive); in the test with U-251, 30.8 µM (inactive). The GI50 is 20 µM (inactive) in the test on UACC-257 and 16 µM (inactive) with UACC-62.
Take `Cc1cn(C2C=CC(COP(=O)(OCC3=CC(=O)c4ccccc4C3=O)N(C)CCCCCl)O2)c(=O)[nH]c1=O` (stereo not given): the GI50 was 1.6 µM (inactive) in the test with A549; 13.2 µM (inactive) in the test with CAKI-1; 8.51 µM in the test with HCT-15; 1.42 µM (inactive) with HL-60; 0.074 µM (active) in the test on HOP-92; 3.9 µM (inactive) with Hs-578T. For the same molecule, the GI50 was 2.38 µM (inactive) with LOX IMVI; 1.18 µM (inactive) in the test on M14; 1.94 µM (inactive) in the test with MDA-MB-435; 0.15 µM (active) with MOLT-4; 16.4 µM (inactive) in the test on NCI/ADR-RES; 13.7 µM (inactive) in the test with OVCAR-8. The GI50 in the test with SF-539 was 13.1 µM (inactive); with SNB-19 it was 12 µM (inactive); in the test on SNB-75 it was 1.55 µM (inactive); in the test on SR it was 0.0473 µM (active); in the test with T47D, 2.09 µM (inactive); in the test on U-251, 5.38 µM (inactive). Besides, the GI50 with UACC-257 is 3.25 µM (inactive); in the test with UACC-62, 3.75 µM (inactive).
Consider `O=C(NC(Cc1c[nH]c2ccccc12)C(=O)Nc1ccc(Br)cc1)OCc1ccccc1` (stereo not given), for which the GI50 in the test on A549 was 9.16 µM (inactive); with CAKI-1, 5.27 µM (inactive); with HCT-15, 11.1 µM; in the test with HL-60, 3.97 µM (inactive); in the test on HOP-92 it was 5.18 µM (inactive); with Hs-578T, 18.9 µM (inactive). Also, the GI50 was 9.06 µM (inactive) with LOX IMVI; 11.8 µM (inactive) with M14; 8.83 µM (inactive) in the test with MDA-MB-435; 4.53 µM (inactive) in the test on MOLT-4; 12.1 µM (inactive) in the test with NCI/ADR-RES; 13.6 µM (inactive) in the test on OVCAR-8. Besides, the GI50 with SF-539 is 15.3 µM (inactive); in the test on SNB-19, 21.1 µM (inactive); with SNB-75, 14.7 µM (inactive); in the test on SR, 6.95 µM (inactive); in the test with T47D, 10 µM (inactive); in the test on U-251, 12 µM (inactive). The values for the GI50 in the test on UACC-257 and with UACC-62 were 11.3 µM (inactive) and 10.1 µM (inactive), respectively.
`NC(=O)NNCc1c(-c2ccccc2)no[n+]1[O-]`: the GI50 in the test on A549 is > 100 µM (inactive); in the test on CAKI-1 it was > 100 µM (inactive); with HCT-15 it was more than 100 µM; in the test on HL-60, > 100 µM (inactive); with HOP-92 it was > 100 µM (inactive); with Hs-578T, > 100 µM (inactive). Moreover, the GI50 in the test on LOX IMVI, in the test on M14, in the test with MDA-MB-435, with MOLT-4, in the test on NCI/ADR-RES and in the test with OVCAR-8 was > 100 µM (inactive) each time. In addition, the GI50 in the test with SF-539, with SNB-19, with SNB-75, in the test with SR, with T47D and in the test with U-251 was > 100 µM (inactive) throughout. Further, the GI50 in the test on UACC-257 and in the test with UACC-62 was > 100 µM (inactive) throughout.
